{
  "source": "patent US20180280397A1",
  "about": "“RATIONAL COMBINATION THERAPY FOR THE TREATMENT OF CANCER” (Memorial Sloan Kettering Cancer Center, priority 2015, published 2018)",
  "key": {"[1]": {"tested_on": "cancer cell lines", "experiment": "Cell viability by Annexin V staining in type 1 and type 2 cancer cells", "type": "cell-based", "conditions": "for apoptotic sensitivity, type 1 tumors / apoptotic sensitivity, type 2 tumors: Annexin V staining", "description": "(FIG. 3c). Cells were treated with 1 μM PU-H71-FITC. At 4 h post treatment, cells were washed twice with FACS buffer. To measure PU-H71-FITC binding in live cells, cells were stained with 7-AAD in FACS buffer at room temperature for 10 min, and analyzed by flow cytometry (BD Biosciences). Cell viability was determined using Annexin v staining. […]"}, "[2]": {"tested_on": "HER2+ tumors", "conditions": "patients with progressive disease after trastuzumab therapy; cited from earlier work"}, "[3]": {"tested_on": "SUDHL4 DLBCL cells", "experiment": "Cell cycle analysis and caspase-3 activation by flow cytometry", "type": "cell-based", "description": "To further establish the potency of a combination of a proteotoxic agent and an Hsp90 inhibitor, in vitro assays were performed on lymphoma cells treated with Doxorubicin (DOX). DOX is a topoisomerase inhibitor that intercalates into DNA to induce DNA damage and oxidative stress. The interaction of DOX and PU-H71 was evaluated using standard criteria for synergy, the median effect/Combination Index (CI) method. A dose-response matrix was used as a means to systematically test multiple ratios of DOX:PU-H71 for interaction in sequential or simultaneous schedules of exposure. […] The effect of each drug and their combination on cell cycle and apoptosis in lymphoma cells with low to medium epichaperome levels, such as the SUDHL4 DLBCL cells was evaluated (FIG. 18c).\nSUDHL4 DLBCL cells were exposed to PU-H71 and DOX or combinations in different schedules as indicated. Caspase-3 activation was measured by flow cytometry using PE-conjugated anti-active Caspase-3 antibody (FIG. 18C). Cell cycle analysis was performed in parallel and is shown in the inset at top left of each scatterplot. Frequency of hypodiploid population is indicated."}, "[4]": {"tested_on": "HSP90 in the epichaperome complex", "experiment": "PU-H71-beads depletion of HSP90 species from cell lysates, isoelectric focusing", "type": "binding", "source_text": "The supernatant was applied to native gel separation followed by immunoblotting with HSP90 and other epichaperome complex components (left, example for MDAMB468) or nanopro isoelectric focusing and immunoblotting ([…], shown for all 3 cells). Duplicates of each experimental condition are presented. Data were graphed to indicate the relative binding affinity of PU-H71 to the HSP90 species as expressed in the 3 cell types."}, "[5]": {"tested_on": "primary breast tumors", "experiment": "Ex vivo treatment of primary breast cancer specimens", "type": "cell-based", "conditions": "24 h", "description": "Primary breast cancer specimens. Patient tissue procurement was authorized through institutionally review board-approved bio-specimen protocol#09-121 at Memorial Sloan Kettering Cancer Centre (New York, N.Y.). Specimens were treated for 24 h with the indicated concentrations of PU-H71. Following treatment, slices were fixed in 4% formalin solution for 1 h then stored in 70% ethanol. For tissue analysis, slices were embedded in paraffin, sectioned, slide-mounted, and stained with haematoxylin and eosin. Tissue slides were assessed blindly by a breast cancer pathologist who gauged the apoptosis present in the tumor as well as any effect to normal tissue.\nPrimary breast tumor protocol. The ex vivo protocol employed on this study is depicted schematically in FIG. 4. Sample preparation and treatment are detailed in Ex vivo treatment response of primary tumors and/or associated metastases for preclinical and clinical development of therapeutics. Corben A D, Uddin M M, Crawford B, Farooq M, Modi S, Gerecitano J, Chiosis G, Alpaugh M L. J Vis Exp. 2014 Oct 2; (92):e52157."}, "[6]": {"tested_on": "primary acute myeloid leukemias", "experiment": "Ex vivo treatment of primary acute myeloid leukemia samples", "type": "cell-based", "description": "Primary acute myeloid leukemia. Cryopreserved primary AML samples were obtained with informed consent and Weill Cornell Medical College institutional review board approval, and from the University of Pennsylvania Stem Cell & Xenograft Core Facility.\nEpichaperome abundance determined by the PU-FITC flow cytometry assay. Cells were treated with 1 μM PU-H71-FITC. At 4 h post treatment, cells were washed twice with FACS buffer (PBS-0.5% FBS). To measure PU-H71-FITC binding in live cells, cells were stained with 7-AAD in FACS buffer at room temperature for 10 min, and analyzed by using an BD-LSR-II or BD-Canto cytometry (BD Biosciences). Cell viability was determined using Annexin-V staining. At 48 h post 1 μM PUH71 treatment, cells were stained with Annexin-V BD Horizon-V450 (BD Biosciences) and 7-AAD in Annexin-V buffer, and subjected to flow cytometry to measure viability determined by AnnexinV/7AAD double negative gates."}, "[7]": {"tested_on": "BT20 triple negative breast cancer cells", "experiment": "Incucyte kinetic growth assay", "type": "cell-based", "conditions": "for effect on cell confluency, agent alone: 2 μM paclitaxel or 5 μM PU-H71; for remaining live cells and regrowth after removal of agents: between 130 h and approximately 230 h", "description": "MDA-MD-231 and BT20 triple negative breast cancer cells were seeded in tissue culture treated dishes. Once confluent to approximately 50% of the vessel surface area, the cells were treated with medium containing 2 μM paclitaxel, 5 μM PU-H71, vehicle (DMSO), or a combination of 2 μM paclitaxel and 5 μM PU-H71 (together or sequential). Cells were grown in these conditions in an Essen IncuCyte housed in a standard cell culture incubator. Nine images per condition were collected every 2 hours for a total of 316 hours. After 24 hours under the aforementioned treatment conditions, paclitaxel treated cells were treated with medium containing 5 μM PU-H71 or the control vehicle, PU-H71 treated cells were treated with medium containing 2 μM paclitaxel or control vehicle, and the cells treated with vehicle and the combination of PU-H71 with paclitaxel were treated with medium containing control vehicle. All secondary drug additions were added to existing medium containing the original treatment. The existing medium was additionally diluted twice more with medium containing the control vehicle; each dilution occurring 24 hours after the previous. After 96 hours in culture, the medium was aspirated from each well and replaced with cell-appropriate medium with no pharmacological agents. As stated above, cells were monitored for a total of 316 hours (i.e., […] after complete removal of pharmacological agents)."}, "[8]": {"experiment": "Safety and body weight monitoring in tumor-bearing mice", "type": "in vivo", "description": "Pre-formulated Abraxane® (5 mg/ml) was used.\nFive mice were administered the vehicle control."}, "[9]": {"tested_on": "triple-negative breast cancer mouse models", "conditions": "pre-clinical; cited from earlier work"}, "[10]": {"tested_on": "epichaperome", "experiment": "Induction of epichaperome, native gel of HSP90 complexes in treated cancer cells", "type": "cell-based", "conditions": "cells pretreated with paclitaxel for 1 h then drug washed off", "description": "Cells were cultured using the procedure described in Example 1. The proteotoxic stressor (e.g., paclitaxel or bortezomib) was added for 6 hours and then the cells were lysed. The homogenate was applied for separation on a gel under native conditions.\nFor the wash off studies (FIG. 8d), cells were cultured and then treated with paclitaxel (referred to as PAC in figure) for 1-2 hours to mimic in vivo conditions. The paclitaxel was then washed off to determine how long the epichaperome is maintained in vitro."}, "[11]": {"tested_on": "BJAB Burkitt lymphoma cells", "experiment": "MTS viability assay, DOX followed by PU-H71", "type": "cell-based", "conditions": "Homo sapiens, 24 h", "description": "BJAB Burkitt lymphoma cells were exposed to serial dilutions of DOX for 24 h prior to addition of 500 nM PU-H71. Viability was measured 24 h later using standard MTS assay. Sextuplicate data points were averaged and normalized against untreated (DOX alone) or PU-H71-treated (DOX followed by PU-H71) controls. Data is presented as mean±SD."}},
  "note": "Entries after “also recorded” stand apart in the source; their conditions may differ.",
  "data": [
    {"molecule": "CC1(C)CC(=O)c2c(C(F)(F)F)nn(-c3ccc(C(N)=O)c(N[C@H]4CC[C@H](O)CC4)c3)c2C1", "note": "[SNX2112]", "values": [
      {"measurement": "apoptotic sensitivity, type 1 tumors", "setting": "[1]; 48 h", "value": "effectively killed"},
      {"measurement": "apoptotic sensitivity, type 2 tumors", "setting": "[1]; 48 h", "value": "refractory"}
    ]},
    {"molecule": "CO[C@H]1/C=C\\C=C(/C)C(=O)NC2=CC(=O)C(NCCN(C)C)=C(C[C@@H](C)C[C@H](OC)[C@H](O)[C@@H](C)/C=C(\\C)[C@@H]1OC(N)=O)C2=O", "note": "[17-DMAG]", "values": [
      {"measurement": "clinical response", "setting": "[2]", "value": "elicited responses"}
    ]},
    {"molecule": "CC(C)NCCCn1c(Sc2cc3c(cc2I)OCO3)nc2c(N)ncnc21", "note": "[PU-H71, 8-(6-Iodo-benzo[1,3]dioxol-5-ylsulfanyl)-9-(3-isopropylamino-propyl)-9H-purin-6-ylamine]", "values": [
      {"measurement": "effect on cell cycle", "setting": "[3]; 24 h exposure to 1 μM PU-H71", "value": "G1/S arrest"},
      {"measurement": "relative binding affinity for HSP90 species", "setting": "[4]; epichaperome / stress HSP90 vs housekeeping, normal cell HSP90", "value": "higher affinity for the stress HSP90 species; also recorded: higher affinity and selectivity"},
      {"measurement": "amount of epichaperome in the lysates", "setting": "[4]; increasing amounts of PU-H71 attached to a solid support", "value": "dose-dependent reduction"},
      {"measurement": "cell death", "setting": "[1]; cells enriched in the epichaperome vs cells with lower levels, 1 μM, 48 h", "value": "more likely to die"},
      {"measurement": "sensitivity to killing", "setting": "[1]; cells with AHA-1 levels reduced by siRNA, 24 h", "value": "less amenable to killing"},
      {"measurement": "apoptosis / killing of tumors expressing stable multimeric epichaperome forms", "setting": "[5]", "value": "most effectively killed; also recorded: readily underwent apoptosis"},
      {"measurement": "sensitivity of adjacent benign tissue", "setting": "[5]", "value": "insensitive"},
      {"measurement": "sensitivity of tumors not enriched in the epichaperome (type 2)", "setting": "[5]", "value": "mostly unaffected; also recorded: far less sensitive"},
      {"measurement": "sensitivity of non-malignant lymphocytes in the AML samples", "setting": "[6]", "value": "insensitive"},
      {"measurement": "sensitivity of type 2 tumors", "setting": "[6]", "value": "mostly unaffected"},
      {"measurement": "killing of leukemias expressing stable multimeric epichaperome forms", "setting": "[6]; n=40", "value": "most effectively killed"},
      {"measurement": "effect on cell confluency, agent alone", "setting": "[7]", "value": "cytotoxic effect"},
      {"measurement": "remaining live cells and regrowth after removal of agents", "setting": "[7]", "value": "a few live cells and these cells start to regrow"},
      {"measurement": "adverse effects", "setting": "[8]; Example 13: NCI-H1975, HCC1806 or MDA-MB-231 bearing mice, ip once a week, PU-H71 75 mg/kg, Abraxane 30 mg/kg", "value": "No adverse effects were observed"},
      {"measurement": "adverse effects", "setting": "[8]; Example 14: MiaPaca2 bearing mice, Abraxane 30 mpk iv or ip 1x wk, PU-H71 75 mpk ip 1x or 2x wk, 40-day treatment", "value": "No adverse effects were observed"},
      {"measurement": "adverse effects", "setting": "[8]; Example 15: HCC1806 bearing mice, Abraxane 30 mpk iv 1x wk, PU-H71 75 mpk ip 1x or 2x wk, 40-day treatment", "value": "No adverse effects were observed"},
      {"measurement": "single-agent anti-tumor effect", "setting": "[9]", "value": "most potent targeted single-agent anti-tumor effect yet reported"}
    ]},
    {"molecule": "CC(=O)O[C@H]1C(=O)[C@@]2(C)[C@H]([C@H](OC(=O)c3ccccc3)[C@]3(O)C[C@H](OC(=O)[C@H](O)[C@@H](NC(=O)c4ccccc4)c4ccccc4)C(C)=C1C3(C)C)[C@]1(OC(C)=O)CO[C@@H]1C[C@@H]2O", "note": "[paclitaxel, reference compound]", "values": [
      {"measurement": "time of decrease of epichaperome to endogenous levels", "setting": "[10]", "value": "≤ 24", "unit": "h"},
      {"measurement": "time of peak epichaperome levels", "setting": "[10]", "value": "5 to 7", "unit": "h"},
      {"measurement": "effect on cell confluency, agent alone", "setting": "[7]", "value": "cytotoxic effect"},
      {"measurement": "remaining live cells and regrowth after removal of agents", "setting": "[7]", "value": "a few live cells and these cells start to regrow"}
    ]},
    {"molecule": "COc1cccc2c1C(=O)c1c(O)c3c(c(O)c1C2=O)C[C@@](O)(C(=O)CO)C[C@@H]3O[C@H]1C[C@H](N)[C@H](O)[C@H](C)O1", "note": "[DOX, Doxorubicin]", "values": [
      {"measurement": "IC50", "setting": "[11]; 500 nM PU-H71 added sequentially 24 h after DOX, viability 24 h later", "value": 75, "unit": "nM"},
      {"measurement": "IC50", "setting": "[11]; DOX alone, DOX 24 h, viability measured 24 h later", "value": 400, "unit": "nM"},
      {"measurement": "effect on cell cycle", "setting": "[3]; 24 h exposure to doses of DOX below the IC50", "value": "loss of S-phase fraction and accumulation in G2/M"}
    ]},
    {"molecule": "CCNC(=O)c1noc(-c2cc(C(C)C)c(O)cc2O)c1-c1ccc(CN2CCOCC2)cc1", "note": "[NVP-AUY-922]", "values": [
      {"measurement": "apoptotic sensitivity, type 1 tumors", "setting": "[1]; 48 h", "value": "effectively killed"},
      {"measurement": "apoptotic sensitivity, type 2 tumors", "setting": "[1]; 48 h", "value": "refractory"}
    ]}
  ]
}
